How the values were obtained:
p300 Taz2 = conditions: cited from earlier work
[1] = test system: Taz2 domain of p300 (A1723-K1812/C1738A, C1746A, C1789A, C1790A); assay: ITC binding of p53; conditions: for Ka: ITC, 20 mM Tris-HCl (pH 7.2), 100 mM NaCl, 2 mM β-mercaptoethanol, 35 °C, 1:1 binding model, performed at least twice, ND = No binding was detected
CBP Taz2 = conditions: α1, α2, α3 surface of Taz2; cited from earlier work
Taz2 domain of p300 [2] = assay: pH dependence of p53 binding to Taz2 by ITC; conditions: between pH 5.9 and 6.8; ITC at 35 °C; 100 mM Tris, 100 mM Bis-Tris, 100 mM acetate
Taz2 R1731A = assay: ITC binding of p53; conditions: ITC at 35 °C
Taz2 domain of p300 [3] = assay: Salt dependence of p53; assay type: binding; conditions: ITC at 35 °C; similar pH values; 100 mM acetate as opposed to 100 mM NaCl
Taz2 S1741D = assay: ITC binding of p53; conditions: ITC at 35 °C
[4] = ITC at 35 °C, pH 7.2, 100 mM NaCl

W53A/F54A double mutation of p53(25–65): W53A/F54A double mutation of p53(25–65)
Taz2 binding of double mutant (p300 Taz2): abrogated Taz2 binding

p53 D48N: p53(35–59) with mutation of Asp48 to asparagine
Ka [1]: (0.60 ± 0.08) × 10^6 M^−1

p53 E51Q: p53(35–59) with mutation of Glu51 to glutamine
Ka [1]: (0.56 ± 0.13) × 10^6 M^−1

p53 F54S: p53(35–59) with mutation of Phe54 to serine
reduction in the association constant compared with wild-type p53 peptide [1, 4]: 55% | Ka [1]: (0.53 ± 0.09) × 10^6 M^−1

p53 I50A: p53(35–59) mutant peptide I50A
weaker binding to Taz2 than wild-type [1, 4]: 3 fold | Ka [1]: (0.31 ± 0.01) × 10^6 M^−1

p53 L45A: p53(35–59) mutant peptide L45A
Ka [1]: (0.91 ± 0.04) × 10^6 M^−1

p53 M40A: p53(35–59) mutant peptide M40A
Ka [1]: (1.32 ± 0.05) × 10^6 M^−1

p53 Q52E: p53(35–59) mutant peptide Q52E
Ka [1]: (1.29 ± 0.35) × 10^6 M^−1

p53 T55A: p53(35–59) mutant peptide T55A
Ka [1]: (1.16 ± 0.10) × 10^6 M^−1

p53 TAD1: first transactivation subdomain of p53 (residues 1–39)
binding to CBP Taz2 (CBP Taz2): high affinity | effect of phosphorylation on Taz2 binding (p300 Taz2): increased its affinity for p300 Taz2

p53 TAD2: second transactivation subdomain of p53 (residues 40–61)
binding to CBP Taz2 (CBP Taz2): high affinity | effect of phosphorylation on Taz2 binding (p300 Taz2): unaffected by phosphorylation | affinity for Taz2 (p300 Taz2; p53 TAD2 compared with p53 TAD1): tighter than that of p53 TAD1

p53 W53Q: p53(35–59) with Trp53 mutated to glutamine (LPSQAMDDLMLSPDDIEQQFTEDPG)
detectable binding to Taz2 ([1]; ITC at 35 °C): loss of detectable binding

p53 pThr55: p53(35–59) phosphorylated at Thr55
Ka [1]: (1.30 ± 0.05) × 10^6 M^−1

p53(1–39): p53 TAD1, residues 1–39 [reference compound]
pH dependence of affinity for Taz2, pH 5.9 to 6.8 (Taz2 domain of p300 [2]): not dependent upon pH between pH 5.9 and 6.8

p53(1–57): p53(1–57), both TAD subdomains
overall affinity for Taz2 relative to single subdomains (p300 Taz2): overall affinity higher than that of either interaction alone

p53(35–59): p53 TAD2 peptide, residues 35–59, synthesized by solid-phase method or expressed as GST fusion
reduction in binding affinity vs wild-type Taz2 (Taz2 R1731A): 3 fold | affinity in 100 mM acetate vs 100 mM NaCl (Taz2 domain of p300 [3]): significantly higher | effect of Taz2 mutation on binding (Taz2 S1741D): did not affect binding | effect of phosphorylation on Taz2 binding (p300 Taz2): does not significantly affect binding

Source: article PMC7722985 (Biochemistry, 2015)
